In patent US20240254119A1 (THIRD HARMONIC BIO, INC., priority 2022, published 2024):

What was measured:
wtKIT [1] = molecular target: T1, wtKIT (Homo sapiens, UniProt P10721); test: HTRF biochemical assay, wtKIT (phosphorylation of a peptide substrate); settings: Table 4
T1 construct: 1888289AM in the reaction mixtures
Method in brief: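 wtKIT (5.0 nM) phosphorylating 1 µM FAM-labelled peptide with 400 µM ATP and 10 mM MnCl2 in 100 mM HEPES pH 7.5, 1% DMSO, 3 h at 25 °C. EDTA quench; phosphopeptide detected with anti-phosphotyrosine antibody by HTRF. Enzyme titrated for 10-20% substrate conversion.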

wtKIT [2] = molecular target: T1, wtKIT; test: Caliper biochemical assay, wtKIT; settings: Table 6, read-out: KIT Biochemical IC50 avg
Description: Enzyme, substrate, and cofactors (ATP and Mn^2+) are combined in a well of a microtiter plate and incubated for 3 hours at 25° C. At the end of the incubation, the reaction is quenched by the addition of an EDTA-containing buffer. Substrate and product are separated electrophoretically using the microfluidic-based LabChip 3000 Drug Discovery System from Caliper Life Sciences* and quantitated by fluorescence intensity.
The substrate used in the CSF-1R and PDGFRα assay is FAM-[…]-CONH2 (FAM is carboxyfluorescein). Peptide should be >95% purity. The substrate for the KIT assay is FAM-[…]-NH2.
• 1. To a well of a 384-well plate add 5 μL of 2× enzyme buffer (or control) • 2. Add 100 nL of 100× compound. • 3. Add 5 μL of 2× substrate buffer. • 4. Incubate plate at 25° C. for 3 hours. • 5. Add 10 uL of […]. • 6. Read plate LabChip 3000 Drug Discovery System
• 3 hours at 25° C. where 100% Inhibitor: No enzyme.
• 100 mM HEPES, pH 7.5 0.1% BSA • 0.01% Triton X-100 • 1 mM DTT • 10 mM MnCl2 • 10 μM Sodium Orthovanadate • 10 μM Beta-Glycerophosphate • 400 μM ATP • 1% DMSO (from compound) • 1 μM FAM-[…]-CONH2 5.0 nM wtKIT Enzyme (1888289AM)* • *Specific activity may vary from lot to lot. Enzyme concentration may need to be adjusted to yield 10-20% conversion of substrate to product.

Kinetic solubility assay = format: physicochemical; settings: kinetic solubility, 50 mM PB (pH 7.4), shaken 24 hours at RT
Description: 10 μL of 10 mM in DMSO of test article and control compounds was added into lower chambers of whatman miniuniprep vials, respectively. 490 μL of 50 mM PB (pH 7.4) was then added into lower chambers of the whatman miniuniprep vials, respectively. […] Miniuniprep vials were shaken for 24 hours at RT at the speed of 800 rpm, centrifuged 20 minutes (eg. 4000 rpm) and the filtrates were analyzed by UPLC-UV/HPLC-UV system to calculate the concentration with standard curve.
Filter Membrane: Miniuniprep (PTFE Filter Media with Polypropylene Housing) Cat. No. UN203NPUORG, GE Halthcare Whatman.

[3] = molecular target: T2, BCRP (BCRP-MDCKII monolayer) (Homo sapiens, UniProt Q9UNQ0); test: MDCKII-BCRP bidirectional transport assay; format: in vitro ADME; settings: for MDCK-BCRP: Papp A-B: apical to basolateral
T2 construct: host or cells: MDCKII (canine kidney) cells
T2 sequence (Q9UNQ0 1-655): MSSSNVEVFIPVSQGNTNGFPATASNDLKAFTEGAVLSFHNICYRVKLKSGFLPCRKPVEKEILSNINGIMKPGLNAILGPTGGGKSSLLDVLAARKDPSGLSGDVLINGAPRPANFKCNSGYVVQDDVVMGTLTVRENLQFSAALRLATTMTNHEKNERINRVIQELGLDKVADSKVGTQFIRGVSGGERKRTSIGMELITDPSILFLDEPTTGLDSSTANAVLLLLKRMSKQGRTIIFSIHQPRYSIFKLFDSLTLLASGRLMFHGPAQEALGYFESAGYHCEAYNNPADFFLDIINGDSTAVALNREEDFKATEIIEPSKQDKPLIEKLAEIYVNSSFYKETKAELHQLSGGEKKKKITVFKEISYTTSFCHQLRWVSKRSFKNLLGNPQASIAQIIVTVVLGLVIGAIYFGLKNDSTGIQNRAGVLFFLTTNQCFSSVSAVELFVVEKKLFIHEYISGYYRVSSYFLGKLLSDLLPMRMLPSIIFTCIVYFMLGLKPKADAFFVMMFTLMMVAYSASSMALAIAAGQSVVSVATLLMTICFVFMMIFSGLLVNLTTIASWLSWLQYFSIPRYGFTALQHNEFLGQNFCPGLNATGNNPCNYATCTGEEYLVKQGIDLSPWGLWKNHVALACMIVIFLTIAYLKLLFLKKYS
Description: Exemplary compounds were tested for cell permeability in Caco-2, MDCKII-MDR1 and MDCKII-BCRP cell lines with efflux transporter engagement inferred from the efflux ratios determined. Procedures and results are described below. […] This feature of certain compounds is in part due to efflux transporter engagement. See, for instance, exemplary such compounds included in data tables below.
The reference compound Teriflunomide and test compounds are tested in the bidirectional assay. Test compound and reference compounds incubations were tested in duplicates.
The transport assay can be performed between days 12 to day 15 using ready to use PreadyPort™ BCRP-MDCKII monolayer in 96 well plate.
The medium was aspirated from the apical and basal compartments and 75 and 235 μL assay buffer was added to each of the 96 wells of apical and basal compartments of the PreadyPort™ plate.
The plates were pre-incubated for 15 min at 37° C. with 5% CO2 in humidified atmosphere. After preincubation the assay buffer was removed from the apical and basal inserts of the plate.
In apical to basolateral (A→B) transport, 75 μL of test or reference compound working solution to apical inserts and 235 μL of blank assay buffer were added to the corresponding basal compartments.
In basolateral to apical transport, 235 μL of test or reference compound working solution to the basal compartments and 75 μL of blank assay buffer solution were added to corresponding apical inserts.
The sandwich plate was incubated for 120 min in incubator at 5% CO2 and 37° C.
After incubation, 60 μL was transferred from receiver and donor compartments to collection plate.
For donor and C0 samples 20-fold dilution was accomplished by mixing 60 μL of collected sample with 1140 μL of transport buffer and from that solution aliquot 60 μL transfer Both receiver and donor samples were processed by adding […] of acetonitrile containing internal standard (60 μL of sample+240 μL of acetonitrile containing glyburide as internal standard, 125 ng/mL) and vortexing the samples. The compound concentration was measured in all samples using respective calibration standards by LC-MS/MS.
Calculate the Papp and recovery using the given formula:
[formula] [formula] • Where: dQ/dt=Permeability rate in μM/see • C0=Initial concentration in μM • A=Membrane surface area (0.33 cm^2) • V=Volume of receiver chamber • Cend, a=concentration in acceptor well at end of incubation • Cend, d=concentration in donor well at end of incubation • CHBSS=loading concentration measured in HBSS

T1 sequence (P10721 26-976): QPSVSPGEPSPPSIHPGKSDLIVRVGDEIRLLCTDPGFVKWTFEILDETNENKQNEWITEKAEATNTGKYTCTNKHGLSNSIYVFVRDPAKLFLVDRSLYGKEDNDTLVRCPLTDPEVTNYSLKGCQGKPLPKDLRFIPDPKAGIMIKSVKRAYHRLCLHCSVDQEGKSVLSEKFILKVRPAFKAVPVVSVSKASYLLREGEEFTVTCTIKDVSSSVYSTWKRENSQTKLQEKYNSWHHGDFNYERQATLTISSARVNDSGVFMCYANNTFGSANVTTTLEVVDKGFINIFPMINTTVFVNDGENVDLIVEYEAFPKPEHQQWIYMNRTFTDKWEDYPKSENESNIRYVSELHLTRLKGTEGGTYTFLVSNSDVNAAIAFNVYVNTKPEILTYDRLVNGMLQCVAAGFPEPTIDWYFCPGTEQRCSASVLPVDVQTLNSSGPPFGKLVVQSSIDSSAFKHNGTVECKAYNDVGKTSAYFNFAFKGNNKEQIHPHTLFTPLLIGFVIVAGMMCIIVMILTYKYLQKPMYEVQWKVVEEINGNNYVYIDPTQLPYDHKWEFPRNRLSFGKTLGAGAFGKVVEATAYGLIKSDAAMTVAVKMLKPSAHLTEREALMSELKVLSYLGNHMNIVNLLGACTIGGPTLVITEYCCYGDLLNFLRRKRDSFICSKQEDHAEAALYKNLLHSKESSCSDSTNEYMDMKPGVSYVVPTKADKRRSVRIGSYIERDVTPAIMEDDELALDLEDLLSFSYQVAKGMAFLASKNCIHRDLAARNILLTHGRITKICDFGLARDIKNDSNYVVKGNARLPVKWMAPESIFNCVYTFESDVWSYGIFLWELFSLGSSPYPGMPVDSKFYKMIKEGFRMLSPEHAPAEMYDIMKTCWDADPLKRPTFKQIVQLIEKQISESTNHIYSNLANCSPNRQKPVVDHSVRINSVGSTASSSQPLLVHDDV

| SMILES | IC50 (wtKIT [1]) [µM] | IC50 (wtKIT [2]) [µM] | MDCK-BCRP: Efflux Ratio [3] | MDCK-BCRP: Papp A-B [3] | Solubility (μM) (Kinetic solubility assay) |
| --- | --- | --- | --- | --- | --- |
| Cc1ccc(-c2noc(C3CCN3C(=O)OC(C)(C)C)n2)cc1NC(=O)c1cnc2ccccn12 (racemic) [Compound I-395] |  | 0.05 to 0.5 | 3.28 | 19 10^−6 cm/s | ** (a solubility greater than 10 μM and less than or equal to 50 μM) |
| Cc1ccc(-c2noc(C3CCN(C(=O)OC(C)(C)C)C3)n2)cc1NC(=O)c1cnc2ccccn12 (racemic) [Compound I-399] |  | 0.05 to 0.5 | 2.78 | 6.48 10^−6 cm/s | *** (a solubility greater than 2 μM and less than or equal to 10 μM) |
| Cc1ccc(-c2noc([C@H]3C[C@@H]3F)n2)cc1NC(=O)c1cnc2cc(NS(=O)(=O)c3c(C)noc3C)ccn12 [Compound I-226] | 0.05 to 0.5 | 0.05 to 0.5 |  |  | * (a solubility greater than 50 μM) |
| CCNc1ccn2c(C(=O)Nc3cc(-c4noc(C)n4)ccc3C)cnc2c1 [Compound I-229] | ≤ 0.05 | ≤ 0.05 |  |  | **** (a solubility less than or equal to 2 μM) |
| Cc1ccc(-c2noc([C@H]3CCN3S(=O)(=O)c3cccnc3)n2)cc1NC(=O)c1cnc2ccccn12 [Compound I-233] | 0.05 to 0.5 | 0.05 to 0.5 |  |  | ** (a solubility greater than 10 μM and less than or equal to 50 μM) |
| COC(=O)N1CC(c2nc(-c3ccc(C)c(NC(=O)c4cnc5ccc(OCC(C)(C)O)cn45)c3)no2)C1 [Compound I-239] | 0.05 to 0.5 | 0.05 to 0.5 |  |  | ** (a solubility greater than 10 μM and less than or equal to 50 μM) |
| Cc1ccc(-c2noc([C@H]3CCN3)n2)cc1NC(=O)c1cnc2cc(C#N)ccn12 [Compound I-244] | 0.05 to 0.5 | 0.05 to 0.5 |  |  | * (a solubility greater than 50 μM) |
| COC(=O)N1CC(c2nc(-c3ccc(C)c(NC(=O)c4cnc5ccc(OCCO)cn45)c3)no2)C1 [Compound I-247] | 0.05 to 0.5 | ≤ 0.05 |  |  | *** (a solubility greater than 2 μM and less than or equal to 10 μM) |
| Cc1ccc(-c2noc(C3CN(C(N)=O)C3)n2)cc1NC(=O)c1cnc2ccccn12 [Compound I-268] |  | 0.05 to 0.5 | 11.6 | 0.31 10^−6 cm/s | * (a solubility greater than 50 μM) |
| Cc1ccc(-c2noc([C@H]3C[C@@H]3F)n2)cc1NC(=O)c1cnc2cc(Nc3c(C)cccc3C)ccn12 [Compound I-293] |  | 0.05 to 0.5 | 4.55 | 0.02 10^−6 cm/s | *** (a solubility greater than 2 μM and less than or equal to 10 μM) |
| CCOC1CC(c2nc(-c3ccc(C)c(NC(=O)c4cnc5ccccn45)c3)no2)C1 (stereo not drawn) [Compound I-310] |  | 0.05 to 0.5 | 0.81 | 12 10^−6 cm/s | **** (a solubility less than or equal to 2 μM) |
| Cc1ccc(-c2noc(C3C(C)CC3C)n2)cc1NC(=O)c1cnc2ccccn12 (stereo not drawn) [Compound I-315] |  | ≤ 0.05 |  |  | **** (a solubility less than or equal to 2 μM) |
| CC(C)(C)OC(=O)N1CC(c2nc(-c3ccc(Cl)c(NC(=O)c4cnc5ccccn45)c3)no2)C1 [Compound I-333] |  | ≤ 0.05 |  |  | **** (a solubility less than or equal to 2 μM) |

Second part, led by results:

| IC50 (wtKIT [1]) [µM] | IC50 (wtKIT [2]) [µM] | MDCK-BCRP: Efflux Ratio [3] | MDCK-BCRP: Papp A-B [3] | SMILES | Solubility (μM) (Kinetic solubility assay) |
| --- | --- | --- | --- | --- | --- |
| 0.05 to 0.5 | ≤ 0.05 |  |  | Cc1ccc(-c2noc([C@@H]3CC(=O)N3)n2)cc1NC(=O)c1cnc2ccccn12 (racemic) [Compound I-224] | * (a solubility greater than 50 μM) |
|  | ≤ 0.05 | 1.13 | 16.3 10^−6 cm/s | COC1(OC)CCC1c1nc(-c2ccc(C)c(NC(=O)c3cnc4ccccn34)c2)no1 (racemic) [Compound I-308] | *** (a solubility greater than 2 μM and less than or equal to 10 μM) |
|  | ≤ 0.05 | 12.1 | 2.13 10^−6 cm/s | Cc1ccc(-c2noc(C3CCCN3)n2)cc1NC(=O)c1cnc2ccccn12 (racemic) [Compound I-391] | * (a solubility greater than 50 μM) |
|  | ≤ 0.05 | 2.83 | 8.04 10^−6 cm/s | Cc1ccc(-c2noc(C3CCCCO3)n2)cc1NC(=O)c1cnc2ccccn12 (racemic) [Compound I-397] | *** (a solubility greater than 2 μM and less than or equal to 10 μM) |
| ≤ 0.05 | ≤ 0.05 |  |  | Cc1nc(-c2ccc(C)c(NC(=O)c3cnc4ccc(N5CCCCC5)cn34)c2)no1 [Compound I-206] | **** (a solubility less than or equal to 2 μM) |
| ≤ 0.05 | ≤ 0.05 |  |  | Cc1ccc(-c2noc([C@H]3C[C@@H]3F)n2)cc1NC(=O)c1cnc2cc(C(N)=O)ccn12 [Compound I-207] | **** (a solubility less than or equal to 2 μM) |
| ≤ 0.05 | ≤ 0.05 |  |  | Cc1nc(-c2ccc(C)c(NC(=O)c3cnc4ccc(N5CCOCC5)cn34)c2)no1 [Compound I-218] | **** (a solubility less than or equal to 2 μM) |
| 0.05 to 0.5 | ≤ 0.05 |  |  | COC(=O)N1CC(c2nc(-c3ccc(C)c(NC(=O)c4cnc5ccc(OC[C@@H](C)O)cn45)c3)no2)C1 [Compound I-227] | ** (a solubility greater than 10 μM and less than or equal to 50 μM) |
